Patent US20240360146A1, “BRUTON'S TYROSINE KINASE AND MUTANT DEGRADER, COMPOSITION AND APPLICATION THEREOF” (HANGZHOU HEALZEN THERAPEUTICS CO., LTD., priority 2021, published 2024)

Legend:
BTK = target: T1, BTK (Homo sapiens, UniProt Q06187); assay: BTK degradation activity test in Mino cells; assay type: cell-based; settings: 16 h incubation, Western blot or Elisa
T1 construct: endogenous in cells; host or cells: Mino cells
Procedure, shortened: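 Mino cells treated with a concentration series of compound for 16 h, then lysed; total protein by BCA. BTK quantified by Western blot or ELISA, degradation rate calculated against blank control, and DC50 fitted from the degradation curve.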

BTK-C481S = target: T2, BTK-C481S (Homo sapiens, UniProt Q06187, C481S); assay: BTK-C481S degradation activity test in HEK293 OE BTK-C481S cells; assay type: cell-based; settings: 24 h incubation, Western blot or Elisa
T2 construct: expressed in transfected cells; host or cells: HEK293 OE BTK-C481S (overexpressing) cell line
T2 sequence (Q06187 whole entry C481S): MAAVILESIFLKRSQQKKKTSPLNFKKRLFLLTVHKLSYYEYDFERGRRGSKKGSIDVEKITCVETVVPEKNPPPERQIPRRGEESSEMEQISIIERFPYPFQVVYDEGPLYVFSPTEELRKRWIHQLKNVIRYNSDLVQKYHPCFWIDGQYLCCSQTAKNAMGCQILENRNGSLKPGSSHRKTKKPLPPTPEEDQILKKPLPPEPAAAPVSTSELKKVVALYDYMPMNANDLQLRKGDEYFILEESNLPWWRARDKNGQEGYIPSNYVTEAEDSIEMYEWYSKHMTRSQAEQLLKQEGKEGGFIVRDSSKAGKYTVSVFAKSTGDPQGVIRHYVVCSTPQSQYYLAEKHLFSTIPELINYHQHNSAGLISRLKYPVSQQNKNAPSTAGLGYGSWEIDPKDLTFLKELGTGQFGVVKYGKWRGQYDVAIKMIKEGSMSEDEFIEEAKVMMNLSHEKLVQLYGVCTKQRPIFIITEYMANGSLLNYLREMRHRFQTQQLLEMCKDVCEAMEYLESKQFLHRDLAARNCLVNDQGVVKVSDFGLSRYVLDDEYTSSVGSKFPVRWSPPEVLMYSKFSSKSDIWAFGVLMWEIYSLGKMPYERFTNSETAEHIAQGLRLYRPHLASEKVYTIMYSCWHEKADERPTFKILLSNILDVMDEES
Description: HEK293 OE BTK-C481S cell line cells were seeded at 500,000 to 1,000,000 cells/well in a 6-well plate. The compounds were diluted to different concentrations and added to the plate, and after 24 h of incubation, the cells were harvested. After lysing the cells, the total protein concentration in each well was determined using the BCA method. The amount of BTK-C481S was determined using Western blot or Elisa method. The amount of undegraded BTKC481S protein at each drug concentration was compared with the amount of BTKC481S protein in the blank control group to calculate the degradation rate. The degradation curve was drawn based on the degradation rate at each concentration, and the half degradation concentration (DC50) was calculated by fitting.

OCI-LY10 cells = assay: Inhibitory activity on OCI-LY10 cell proliferation (MTS); assay type: cell-based; settings: Homo sapiens, 72 h
Procedure, shortened: (§1)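 Cells seeded at 10000/well, treated with compounds from 1000 nM (4-fold, 8 points) for 72 h (OCI-LY10) or 168 h (Mino) at 37° C. MTS added for 2 h, stopped with SDS, absorbance read at 490 and 650 nm; IC50 from dose-response fit.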

Mino cells = assay: Inhibitory activity on Mino cell proliferation (MTS); assay type: cell-based; settings: Homo sapiens, 168 h incubation
Procedure, shortened: as §1

[1] = Stability of compounds in human liver microsome; assay type: in vitro ADME; settings: human liver microsomes, NADPH, 37° C., sampling 0-120 min; read-out: Human liver microsome T1/2
Procedure, shortened: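 Compound incubated at 37° C with human liver microsomes (1 mg in 1 mL PBS) plus NADPH. Samples taken at 0, 15, 30, 60 and 120 min, quenched into internal standard solution and analysed by LC/MS; metabolism calculated from peak area.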

[2] = Mouse absorption test (pharmacokinetic properties in mice); assay type: in vivo; settings: intragastric, 30 mg/kg; for DNAUC: DNAUC = AUC/Dose; for Cmax: mouse, plasma, po
Description: […] The blood collection time points for intragastric administration were 0.25, 0.5, 1, 2, 4, 6, 8, and 24 h. 0.5 mL of blood was taken with a capillary tube from the orbit, and placed in an EP tube containing EDTA anticoagulant. The EP tube was shaken gently for mixing uniformly, and centrifuged at 3500 rpm and 4° C. for 10 min. The supernatant, i.e., plasma, was taken. Analysis was performed using LC-MS/MS.

[3] = tested on: OCL-LY10 transplanted tumors; assay: Chronic efficacy test, OCL-LY10 subcutaneous transplanted tumor model; assay type: in vivo; settings: NOD/SCID mice, intragastric 10 mg/kg, 3 weeks
Description: NOD/SCID mice were subcutaneously inoculated with OCL-LY10 cells to establish a tumor model. When the tumors grew to about 100 mm^3, the mice were administered with drugs in groups. The mode of administration was as follows: the test compound was administered intragastrically at 10 mg/kg; The changes in body weight and tumor size of the mice were measured twice per week. After 3 weeks, the mice were sacrificed by cervical dislocation, and the efficacy of the compounds on transplanted tumors in OCL-LY10 mice was examined.

B cell activation = assay: Test of inhibition of B cell activation in PBMC (Anti-Human IgM stimulation, flow cytometry); assay type: cell-based; settings: Anti-Human IgM 50 μg/mL, 18 h
Description: The PBMC cell cryopreservation liquid was resuspended in 1640 complete culture medium to an appropriate concentration, and inoculated into a 96-well round-bottom plate at 15×10^4 cells/90 μL/well, and the culture plate was placed in a CO2 incubator for incubation.
The compounds to be tested were formulated into 10 mM stock solutions which were then fold-serially diluted with DMSO, and then diluted with 1640 complete culture liquid to make the concentration 100 times of the final concentration. The compound diluent was added into the cell solution in each well at 1 μL/well and shaken gently. 2 duplicate wells were set up for each concentration. The dosed cell plate was placed in a 37° C. incubator with 5% carbon dioxide and incubated for 1 h.
3. The dosed cell culture plate was taken and 10 μL of Anti-Human IgM-UNLB was added into the well corresponding to the compound to be tested; in 2 groups of cell blank wells, only 10 μL of Anti-Human IgM-UNLB was added; and in 3 groups of cell blank wells, no reagents and antibodies were added. The final concentration of Anti-Human IgM-UNLB was 50 μg/mL.
4. The loaded cell culture plate was placed in a 37° C. incubator with 5% carbon dioxide and incubated for 18 h. Total system: 90 μL PBMC+1 μL compound+10 μL Anti-Human IgM-UNLB
5. Samples were collected and stained, and the cells were analyzed using flow cytometry to obtain data. (When analyzed using flow cytometry, lymphocytes were gated).

[4] = Beagle dog absorption test (PK in dogs); assay type: in vivo; settings: plasma, po, intragastric, 10 mg/kg
Description: Beagle dogs were used as experimental animals, and drugs were administered intragastrically at 10 mg/kg. The blood collection time points for intragastric administration were 0, 0.25, 0.5, 1, 2, 4, 6, 8, 10, 12, and 24 h. 1.0 mL of blood was collected from the jugular vein, placed in an EDTAK2 centrifuge tube, and placed on an ice bath, centrifuged at 5000 rpm and 4° C. for 10 min to obtain the supernatant, i.e., plasma. 0.1 ml of the plasma was taken for analysis by LC-MS/MS.

T1 sequence (Q06187 whole entry): as the sequence (Q06187 whole entry C481S) above, with S481C counted along it

Row | SMILES | DC50 (BTK) | DC50 (BTK-C481S) | IC50 (OCI-LY10 cells) | IC50 (Mino cells) | half-life at 0.97 µg/mL [1] | DNAUC [2] | Cmax [2] | TGI (%) [3] | Inhibition ratio % (B cell activation; concentration 0.16 nM) | Inhibition ratio % (B cell activation; concentration 0.80 nM) | AUC [4]
1 | CN1CCN([C@@H]2CCCN(c3nnc(C(N)=O)c(Nc4ccc(N5CCN(C[C@@H]6CCN(c7ccc8c(c7)C(=O)N(C7CCC(=O)NC7=O)C8=O)C6)CC5)c(F)c4)n3)C2)C1=O (stereo partly drawn) [Compound 131, 5-((4-(4-(((3S)-1-(2-(2,6-dioxopiperidin-3-yl)-1,3-dioxoisoindolin-5-yl)pyrrolidin-3-yl)methyl)piperazin-1-yl)-3-fluorophenyl)amino)-3-((R)-3-(3-methyl-2-oxoimidazolin-1-yl)piperidin-1-yl)-1,2,4-triazin-6-carboxamide] | < 1 nM | < 10 nM | 0.9 nM | 3.61 nM | > 30 min | 3614 ng/ml*h/mpk | 6190 ng/mL | 96.67% | 60.8% | 100% | –
2 | CN1CCN([C@@H]2CCCN(c3nnc(C(N)=O)c(Nc4ccc(N5CCN(C[C@H]6CCN(c7ccc8c(c7)C(=O)N(C7CCC(=O)NC7=O)C8=O)C6)CC5)c(F)c4)n3)C2)C1=O (stereo partly drawn) [Compound 132, 5-((4-(4-(((3R)-1-(2-(2,6-dioxopiperidin-3-yl)-1,3-dioxoisoindolin-5-yl)pyrrolidin-3-yl)methyl)piperazin-1-yl)-3-fluorophenyl)amino)-3-((R)-3-(3-methyl-2-oxoimidazolin-1-yl)piperidin-1-yl)-1,2,4-triazin-6-carboxamide] | < 1 nM | – | < 1 nM | 2.55 nM | > 30 min | 2430 ng/ml*h/mpk | 7800 ng/mL | – | – | – | 1690 ng·h/mL
3 | Cc1cc(N2CCC(CN3CCN(c4ccc(Nc5nc(N6CCC[C@@H](N7CCN(C)C7=O)C6)nnc5C(N)=O)cc4F)CC3)CC2)ccc1N1CCC(=O)NC1=O [Compound 257, (R)-5-((4-(4-((1-(4-(2,4-dioxotetrahydropyrimidin-1(2H)-yl)-3-methylphenyl)piperidin-4-yl)methyl)piperazin-1-yl)-3-fluorophenyl)amino)-3-(3-(3-methyl-2-oxoimidazolidin-1-yl)piperidin-1-yl)-1,2,4-triazin-6-carboxamide] | < 1 nM | < 10 nM | 0.12 nM | < 0.26 nM | > 30 min | – | – | 98.74% | 100% | 100% | 6590 ng·h/mL
4 | NC(=O)c1ncc(N2CCCCC2)nc1Nc1ccc(C2CCN(C[C@H]3CCN(c4ccc5c(c4)C(=O)N(C4CCC(=O)NC4=O)C5=O)C3)CC2)cc1 (stereo partly drawn) [Compound c, reference compound] | – | – | – | – | – | – | – | 67.59% | 10.2% | 16.3% | 246 ng·h/mL
